Columns and labels:
[1] = test system: cMyc (DNA, G4) TGAGGGTGGGTAGGGTGGGTAA; assay: UV-vis titration; conditions: 100 mM K+; 6 mM Na2HPO4, 2 mM NaH2PO4 7.1, 1 mM Na2EDTA, 100 mM KCl
[2] = test system: cMyc (DNA, G4) TGAGGGTGGGTAGGGTGGGTAA; assay: fluorescence titration; conditions: 100 mM K+; 6 mM Na2HPO4, 2 mM NaH2PO4 7.1, 1 mM Na2EDTA, 100 mM KCl
[3] = test system: THM (DNA, G4) GGGTTGGGTTGGGTTGGG; assay: fluorescence titration; conditions: 5 mM K+, 95 mM Li+; 10 mM lithium cacodylate 7.2, 95 mM LiCl, 5 mM KCl
[4] = test system: VEGF (DNA, G4) GGGAGGGTTGGGGTGGG; assay: UV-vis titration; conditions: 5 mM K+, 95 mM Li+; 10 mM lithium cacodylate 7.2, 95 mM LiCl, 5 mM KCl; parallel dimer
[5] = test system: THM (DNA, G4) GGGTTGGGTTGGGTTGGG; assay: ITC; conditions: 5 mM K+, 95 mM Li+; 10 mM lithium cacodylate 7.2, 95 mM LiCl, 5 mM KCl
[6] = test system: THM (DNA, G4) GGGTTGGGTTGGGTTGGG; assay: UV-vis titration; conditions: 5 mM K+, 95 mM Li+; 10 mM lithium cacodylate 7.2, 95 mM LiCl, 5 mM KCl
[7] = test system: THM (DNA, G4) GGGTTGGGTTGGGTTGGG; assay: CD melting; conditions: 5 mM K+; 2 eq NMM
[8] = test system: THM (DNA, G4) GGGTTGGGTTGGGTTGGG; assay: X-ray crystallography; conditions: K+; 2.4 Å; end-stacking to the 3' G-tetrad
[9] = test system: G4TERT (DNA, G4) AGGGGAGGGGCTGGGAGGGC; assay: UV-vis titration; conditions: 5 mM K+, 95 mM Li+; 10 mM lithium cacodylate 7.2, 95 mM LiCl, 5 mM KCl; parallel dimer

`CCc1c(C)c2cc3nc(cc4nc(cc5c(CC)c(C)c(cc1[nH]2)n5C)C(C)=C4CCC(=O)O)C(CCC(=O)O)=C3C` was tested, and the Ka [1] was 19 ± 6 × 10^6 M^-1, the Ka [2] was 7.4 ± 2 × 10^6 M^-1 and the Ka [3] was 50 ± 20 × 10^6 M^-1. For the same compound, the Ka [4] was 10. ± 2 × 10^6 M^-1, the Ka [5] was 70 ± 20 × 10^6 M^-1 and the Ka [6] was 30 ± 20 × 10^6 M^-1. For the same compound, the ΔT [7] was 23 ± 2 °C, the binding [8] was “yes” and the Ka [9] was 1.7 ± 0.7 × 10^6 M^-1.
